Results taken from BigSolDB 2.1.

CO[C@@]1(NC(=O)CSCC#N)C(=O)N2C(C(=O)[O-])=C(CSc3nnnn3C)CS[C@@H]21.[Na+]
solubility (mole fraction)
Conditions | in cyclohexane | in ethanol | in ethyl acetate | in isopropanol | in n-butanol | in n-butyl acetate | in n-hexane | in n-pentanol | in n-propanol
278.15 K | 1.31e-06 | 0.000471 | 5.31e-05 | 6.74e-05 | 4.93e-05 | 3.86e-05 | 1.6e-06 | 3.1e-05 | 6.12e-05
283.15 K | 1.75e-06 | 0.000508 | 6.03e-05 | 7.58e-05 | 5.69e-05 | 4.39e-05 | 2.1e-06 | 3.94e-05 | 7.02e-05
288.15 K | 2.1e-06 | 0.000542 | 6.94e-05 | 8.93e-05 | 6.42e-05 | 5.19e-05 | 2.59e-06 | 4.82e-05 | 8.12e-05
293.15 K | 2.5e-06 | 0.000599 | 8.61e-05 | 0.000117 | 8.26e-05 | 6.35e-05 | 2.98e-06 | 5.84e-05 | 0.000105
298.15 K | 3.1e-06 | 0.000685 | 0.000105 | 0.00014 | 9.89e-05 | 7.49e-05 | 3.5e-06 | 6.75e-05 | 0.000125
303.15 K | 3.6e-06 | 0.000818 | 0.000137 | 0.00017 | 0.000124 | 8.96e-05 | 4.1e-06 | 8e-05 | 0.000153
308.15 K | 4.62e-06 | 0.00105 | 0.000168 | 0.00021 | 0.000152 | 0.000109 | 4.92e-06 | 9.75e-05 | 0.000191
313.15 K | 5.69e-06 | 0.00128 | 0.000221 | 0.000286 | 0.000196 | 0.000124 | 6e-06 | 0.000113 | 0.000244
